In this experiment the test system is P388 leukemia ip, CD2F1 mice, survival T/C. Kind of experiment: NCI In Vivo Anticancer Drug Screen. Data for tumor model P388 Leukemia (intraperitoneal) in CD2F1 (CDF1) mice. The following applies: endpoint: median survival time, higher = longer survival. The essentials:
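Mice carrying the transplanted tumor received test compound or vehicle. Survival was recorded in each group, and the value is the treated-group measurement divided by that of the vehicle-treated control group.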

Where [1] appears, read: dose: 25.0 mg/kg/injection, schedule: Q01DX009 (ip), vehicle: saline with Tween-80.
[2] abbreviates: dose: 50.0 mg/kg/injection, schedule: Q01DX009 (ip), vehicle: saline.
Setting [3] is: dose: 100.0 mg/kg/injection, schedule: Q01DX009 (ip), vehicle: saline.
Where [4] appears, read: dose: 200.0 mg/kg/injection, schedule: Q01DX009 (ip), vehicle: saline.
Setting [5] is: dose: 50.0 mg/kg/injection, schedule: Q01DX009 (ip), vehicle: Klucel (hydroxypropylcellulose) (HPC).
[6] abbreviates: dose: 50.0 mg/kg/injection, schedule: Q01DX009 (ip), vehicle: saline with Tween-80.
Setting [7] is: dose: 100.0 mg/kg/injection, schedule: Q01DX009 (ip), vehicle: Klucel (hydroxypropylcellulose) (HPC).
[8] abbreviates: dose: 100.0 mg/kg/injection, schedule: Q01DX009 (ip), vehicle: saline with Tween-80.
Where [9] appears, read: dose: 200.0 mg/kg/injection, schedule: Q01DX009 (ip), vehicle: Klucel (hydroxypropylcellulose) (HPC).
Where [10] appears, read: dose: 200.0 mg/kg/injection, schedule: Q01DX009 (ip), vehicle: saline with Tween-80.

“And” between values parts separate entries of the source, which are not always exact repeats. Equal entries are not always repeated. Toxic doses and inconclusive results are not listed.

We go through 18 molecules from PubChem BioAssay AID330 (DTP/NCI, 2004).

Take `NC1(C(=O)O)CCCc2ccc(N(CCCl)CCCl)cc21` (centres undefined): the T/C runs as follows: (dose: 5.0 mg/kg/injection, schedule: Q04DX003 (ip), vehicle: saline) 165 % of control; (dose: 6.25 mg/kg/injection, schedule: Q01DX009 (ip), vehicle: saline with Tween-80) 218 % of control and 197 % of control and 201 % of control; (dose: 10.0 mg/kg/injection, schedule: Q04DX003 (ip), vehicle: saline) 180 % of control; (dose: 12.5 mg/kg/injection, schedule: Q01DX009 (ip), vehicle: saline with Tween-80) 272 % of control and 210 % of control and 215 % of control; (dose: 12.5 mg/kg/injection, schedule: Q04DX003 (ip), vehicle: saline with Tween-80) 222 % of control; under setting [1], 90 % of control and 102 % of control and 121 % of control. Also, the T/C is 272 % of control (dose: 25.0 mg/kg/injection, schedule: Q04DX003 (ip), vehicle: saline with Tween-80); 100 % of control (dose: 313.0 micrograms/kg/injection, schedule: Q04DX003 (ip), vehicle: saline with Tween-80); 109 % of control (dose: 625.0 micrograms/kg/injection, schedule: Q04DX003 (ip), vehicle: saline with Tween-80); 113 % of control (dose: 1250.0 micrograms/kg/injection, schedule: Q04DX003 (ip), vehicle: saline with Tween-80).
For the molecule `Cc1cc(O)c([N+](=O)[O-])c(O)c1`, the T/C was 96 % of control under setting [2], 103 % of control under setting [3] and 100 % of control under setting [4].
Take `COC(=O)C1(C(=O)OC)O[C@@H](c2ccccc2)[C@H]2C(=O)N(C)C(=O)[C@H]21`: the T/C by setting is: (dose: 60.0 mg/kg/injection, schedule: Q01DX005 (ip), vehicle: Klucel (hydroxypropylcellulose) (HPC)) 99 % of control; (dose: 120.0 mg/kg/injection, schedule: Q01DX005 (ip), vehicle: Klucel (hydroxypropylcellulose) (HPC)) 101 % of control; (dose: 240.0 mg/kg/injection, schedule: Q01DX005 (ip), vehicle: Klucel (hydroxypropylcellulose) (HPC)) 110 % of control.
With `CN(C)CC(C(=O)/C=C/c1ccccc1)C(C)(C)C` (centres undefined), the T/C was 105 % of control (dose: 60.0 mg/kg/injection, schedule: Q01DX005 (ip), vehicle: saline) and 104 % of control (dose: 120.0 mg/kg/injection, schedule: Q01DX005 (ip), vehicle: saline).
Regarding `O=C1/C(=C/c2cccc([N+](=O)[O-])c2)SC(=S)N1C1CC1`, the T/C is, setting by setting: (dose: 50.0 mg/kg/injection, schedule: Q01DX005 (ip), vehicle: Klucel (hydroxypropylcellulose) (HPC)) 89 % of control; (dose: 100.0 mg/kg/injection, schedule: Q01DX005 (ip), vehicle: Klucel (hydroxypropylcellulose) (HPC)) 89 % of control.
Regarding `c1ccc2c(c1)ccc1c3ccccc3ncc21`, the T/C was 107 % of control (dose: 12.5 mg/kg/injection, schedule: Q04DX003 (ip), vehicle: distilled water + Tween-80); 96 % of control (dose: 25.0 mg/kg/injection, schedule: Q04DX003 (ip), vehicle: distilled water + Tween-80); 98 % of control (dose: 50.0 mg/kg/injection, schedule: Q04DX003 (ip), vehicle: distilled water + Tween-80); 102 % of control (dose: 100.0 mg/kg/injection, schedule: Q04DX003 (ip), vehicle: distilled water + Tween-80); 102 % of control (dose: 200.0 mg/kg/injection, schedule: Q04DX003 (ip), vehicle: distilled water + Tween-80); 98 % of control (dose: 400.0 mg/kg/injection, schedule: Q04DX003 (ip), vehicle: distilled water + Tween-80).
Regarding `NN=C(c1ccc(Br)cc1)c1ccc(Br)cc1`, the T/C is 100 % of control (dose: 25.0 mg/kg/injection, schedule: Q04DX002 (ip), vehicle: saline with Tween-80); 101 % of control (dose: 50.0 mg/kg/injection, schedule: Q04DX002 (ip), vehicle: saline with Tween-80); 100 % of control and 105 % of control (dose: 100.0 mg/kg/injection, schedule: Q04DX002 (ip), vehicle: saline with Tween-80).
Turning to `Cc1ccc([N+](=O)[O-])cc1NC(=O)COc1cc(Cl)c(Cl)cc1Cl`, the T/C reads like this: (dose: 100.0 mg/kg/injection, schedule: Q04DX003 (ip), vehicle: saline with Tween-80) 90 % of control; (dose: 200.0 mg/kg/injection, schedule: Q04DX003 (ip), vehicle: saline with Tween-80) 90 % of control; (dose: 400.0 mg/kg/injection, schedule: Q04DX003 (ip), vehicle: saline with Tween-80) 95 % of control.
For `Cn1c(=O)c2c(ncn2CCSc2ncnc3nc[nH]c23)n(C)c1=O`, the T/C is, setting by setting: under setting [2], 97 % of control; under setting [3], 105 % of control; under setting [4], 114 % of control.
For the molecule `NNC(=O)C(=O)N/N=C(/CC1(O)C(=O)Nc2ccccc21)c1ccc([N+](=O)[O-])cc1` (centres undefined), the T/C by setting is: (dose: 50.0 mg/kg/injection, schedule: Q01DX005 (ip), vehicle: saline with Tween-80) 103 % of control; (dose: 100.0 mg/kg/injection, schedule: Q01DX005 (ip), vehicle: saline with Tween-80) 94 % of control; (dose: 200.0 mg/kg/injection, schedule: Q01DX005 (ip), vehicle: saline with Tween-80) 90 % of control.
Turning to `Cc1ccc([N+](=O)[O-])c2ccccc12`, the T/C is, setting by setting: under setting [5], 113 % of control and 97 % of control; under setting [6], 109 % of control; under setting [7], 100 % of control and 98 % of control; under setting [8], 100 % of control; under setting [9], 103 % of control and 120 % of control; under setting [10], 96 % of control. Under “dose: 400.0 mg/kg/injection, schedule: Q01DX009 (ip), vehicle: Klucel (hydroxypropylcellulose) (HPC)”, the T/C is 86 % of control and 97 % of control.
Consider `CN1C(=O)CC(Sc2ccccc2)c2cc(Cl)ccc21` (centres undefined), for which the T/C runs as follows: under setting [1], 99 % of control; under setting [6], 100 % of control; under setting [8], 97 % of control.
As for `COc1ccc2c(c1OC(C)=O)-c1cc(OC(C)=O)cc3c1C(C2)N(C(=O)CN(CCCl)CCCl)CC3` (centres undefined), the T/C by setting is: (dose: 6.25 mg/kg/injection, schedule: Q04DX003 (ip), vehicle: other) 150 % of control; (dose: 12.5 mg/kg/injection, schedule: Q04DX003 (ip), vehicle: other) 170 % of control; (dose: 25.0 mg/kg/injection, schedule: Q04DX003 (ip), vehicle: DMSO) 170 % of control; (dose: 25.0 mg/kg/injection, schedule: Q04DX003 (ip), vehicle: other) 185 % of control; (dose: 50.0 mg/kg/injection, schedule: Q04DX003 (ip), vehicle: DMSO) 94 % of control; (dose: 50.0 mg/kg/injection, schedule: Q04DX003 (ip), vehicle: other) 95 % of control.
As to `COC(=O)C1=CO[C@@H](OC2OC(CO)C(O)C(O)C2O)[C@H]2[C@@H]1C=C[C@@]2(O)CO` (some centres undefined), the T/C runs as follows: (dose: 6.25 mg/kg/injection, schedule: Q01DX009 (ip), vehicle: Klucel (hydroxypropylcellulose) (HPC)) 100 % of control; (dose: 12.5 mg/kg/injection, schedule: Q01DX009 (ip), vehicle: Klucel (hydroxypropylcellulose) (HPC)) 88 % of control; (dose: 25.0 mg/kg/injection, schedule: Q01DX009 (ip), vehicle: Klucel (hydroxypropylcellulose) (HPC)) 100 % of control; under setting [5], 99 % of control; under setting [7], 107 % of control.
As for `COC(=O)c1ccc(SCCC(=O)CN2C(=O)c3ccccc3C2=O)cc1`, the T/C is 94 % of control under setting [5], 93 % of control under setting [7] and 86 % of control under setting [9].
For `O=C(O)/C=C/c1ccc(O)c(O)c1`, the T/C is 101 % of control and 103 % of control under setting [2]; 101 % of control and 118 % of control under setting [3]; 102 % of control and 107 % of control under setting [4]; 100 % of control and 103 % of control (dose: 400.0 mg/kg/injection, schedule: Q01DX009 (ip), vehicle: saline); 116 % of control (dose: 600.0 mg/kg/injection, schedule: Q01DX009 (ip), vehicle: saline).
Consider `CCN(CC)CCNc1ccc(N)c2sc3ccccc3c(=O)c12`, for which the T/C by setting is: under setting [6], 103 % of control and 107 % of control and 119 % of control; under setting [8], 115 % of control and 120 % of control and 122 % of control; under setting [10], 96 % of control.
As for `COC(=O)C1(C)CC2C(C)(CCC3(C)C4=CC=C5C(=CC(=O)C(O)=C5C)C4(C)CCC23C)CC1O` (centres undefined), the T/C (dose: 6.25 mg/kg/injection, schedule: Q01DX001 (ip), vehicle: saline with Tween-80) was 100 % of control; the T/C (dose: 12.5 mg/kg/injection, schedule: Q01DX001 (ip), vehicle: saline with Tween-80) was 99 % of control; the T/C (dose: 25.0 mg/kg/injection, schedule: Q01DX001 (ip), vehicle: saline with Tween-80) is 99 % of control; the T/C (dose: 100.0 mg/kg/injection, schedule: Q01DX001 (ip), vehicle: saline with Tween-80) was 100 % of control.
